# US8337869B2, “Analgesic cream” (priority 2007, dated 2012)
# What was measured:
# [1] = tested on: PGE2; test: Inhibition of PGE2 production by DPG; conditions: concentrations of DPG contained in Theraflex
# [2] = tested on: LTB4; test: Inhibition of LTB4 production by DPG; conditions: concentrations of DPG contained in Theraflex
structure (smiles),measurement,setting,value
"CC1(C)[C@@H](O[C@H]2O[C@H](C(=O)[O-])[C@@H](O)[C@H](O)[C@H]2O[C@@H]2O[C@H](C(=O)[O-])[C@@H](O)[C@H](O)[C@H]2O)CC[C@]2(C)[C@H]3C(=O)C=C4[C@@H]5C[C@@](C)(C(=O)O)CC[C@]5(C)CC[C@@]4(C)[C@]3(C)CC[C@@H]12.[K+].[K+] [DPG, dipotassium glycyrrhizinate]",inhibition of production of PGE2,[1],greater than 50%
same,inhibition of production of LTB4,[2],greater than 50%
